This assay has as its system BDF1 mice, B16 melanoma ip, median survival T/C. The assay is described as follows: NCI In Vivo Anticancer Drug Screen. Data for tumor model B16 Melanoma (intraperitoneal) in B6D2F1 (BDF1) mice. The settings on record: endpoint: median survival time, higher = longer survival. Summed up: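 In this screen, activity was judged from survival or tumor size in treated versus vehicle-treated tumor-bearing mice, reported as T/C.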

[1] abbreviates: dose: 12.5 mg/kg/injection, schedule: Q01DX009 (ip), vehicle: saline with Tween-80.
[2] abbreviates: dose: 25.0 mg/kg/injection, schedule: Q01DX009 (ip), vehicle: saline with Tween-80.
[3] abbreviates: dose: 50.0 mg/kg/injection, schedule: Q01DX009 (ip), vehicle: saline with Tween-80.
Setting [4] is: dose: 100.0 mg/kg/injection, schedule: Q01DX009 (ip), vehicle: saline with Tween-80.
[5] abbreviates: dose: 200.0 mg/kg/injection, schedule: Q01DX009 (ip), vehicle: saline with Tween-80.
The mark [6] stands for this setting: dose: 400.0 mg/kg/injection, schedule: Q01DX009 (ip), vehicle: saline with Tween-80.
[7] abbreviates: dose: 100.0 mg/kg/injection, schedule: Q01DX009 (ip), vehicle: Klucel (hydroxypropylcellulose) (HPC).

The structures appear in SMILES notation. Values joined by “and” are separate entries in the source; they are usually repeats but may differ in a detail not shown here. Equal entries are not always repeated. Toxic doses and inconclusive results are not listed.

The text below walks through data of PubChem BioAssay AID192 (DTP/NCI, 2004).

For `COc1cc([C@@H]2c3cc4c(cc3[C@@H](OC3OC5COC(C)OC5C(O)C3O)[C@H]3COC(=O)[C@H]23)OCO4)cc(OC)c1O` (stereo not given in full), the T/C was 206 % of control (dose: 1.73 mg/kg/injection, schedule: Q01DX009 (ip), vehicle: clinical formulation); 150 % of control (dose: 2.0 mg/kg/injection, schedule: Q01DX009 (ip), vehicle: Klucel (hydroxypropylcellulose) (HPC)); 240 % of control (dose: 2.88 mg/kg/injection, schedule: Q01DX009 (ip), vehicle: clinical formulation); 111 % of control (dose: 4.0 mg/kg/injection, schedule: Q01DX009 (ip), vehicle: Klucel (hydroxypropylcellulose) (HPC)); 240 % of control (dose: 4.8 mg/kg/injection, schedule: Q01DX009 (ip), vehicle: clinical formulation); 252 % of control (dose: 5.0 mg/kg/injection, schedule: Q01DX009 (ip), vehicle: saline). The T/C was 202 % of control (dose: 5.0 mg/kg/injection, schedule: Q04DX003 (ip), vehicle: suspension in saline); 276 % of control (dose: 8.0 mg/kg/injection, schedule: Q01DX009 (ip), vehicle: Klucel (hydroxypropylcellulose) (HPC)); 259 % of control (dose: 8.0 mg/kg/injection, schedule: Q01DX009 (ip), vehicle: clinical formulation); 180 % of control (dose: 8.0 mg/kg/injection, schedule: Q04DX003 (ip), vehicle: suspension in saline); 285 % of control (dose: 10.0 mg/kg/injection, schedule: Q01DX009 (ip), vehicle: saline); 208 % of control (dose: 10.0 mg/kg/injection, schedule: Q04DX003 (ip), vehicle: suspension in saline). The T/C is, setting by setting: (dose: 13.3 mg/kg/injection, schedule: Q01DX009 (ip), vehicle: clinical formulation) 53 % of control; (dose: 16.0 mg/kg/injection, schedule: Q04DX003 (ip), vehicle: suspension in saline) 207 % of control; (dose: 20.0 mg/kg/injection, schedule: Q04DX003 (ip), vehicle: suspension in saline) 236 % of control; (dose: 32.0 mg/kg/injection, schedule: Q04DX003 (ip), vehicle: suspension in saline) 85 % of control; (dose: 40.0 mg/kg/injection, schedule: Q04DX003 (ip), vehicle: suspension in saline) 241 % of control; (dose: 64.0 mg/kg/injection, schedule: Q04DX003 (ip), vehicle: suspension in saline) 63 % of control.
Regarding `O=C(NC(CSCc1ccccc1)C(=O)O)OCc1ccccc1` (stereo not given), the T/C is, setting by setting: under setting [1], 107 % of control; under setting [2], 107 % of control; under setting [3], 98 % of control and 103 % of control; under setting [4], 87 % of control.
On to `NC(Cc1ccc(Cl)cc1)C(=O)O` (stereo not given), for which the T/C was 123 % of control under setting [4], 115 % of control under setting [5] and 104 % of control under setting [6].
Turning to `C=C(C)C(=O)O[C@H]1CC2=C[C@@H](C[C@@]3(C)O[C@@H]3[C@H]3OC(=O)C(=C)[C@@H]31)OC2=O`, the T/C was 89 % of control (dose: 3.75 mg/kg/injection, schedule: Q01DX009 (ip), vehicle: Klucel (hydroxypropylcellulose) (HPC)); 97 % of control (dose: 7.5 mg/kg/injection, schedule: Q01DX009 (ip), vehicle: Klucel (hydroxypropylcellulose) (HPC)); 92 % of control (dose: 15.0 mg/kg/injection, schedule: Q01DX009 (ip), vehicle: Klucel (hydroxypropylcellulose) (HPC)).
`O=C(O)CCCSc1nc2ccccc2s1`: the T/C was 100 % of control under setting [4] and 95 % of control under setting [5].
Turning to `CN(C)CCCN1c2ccccc2Sc2ccc(Cl)cc21`, the T/C is, setting by setting: (dose: 1.0 mg/kg/injection, schedule: Q01DX009 (ip), vehicle: saline) 101 % of control; (dose: 2.0 mg/kg/injection, schedule: Q01DX009 (ip), vehicle: saline) 111 % of control and 93 % of control; (dose: 4.0 mg/kg/injection, schedule: Q01DX009 (ip), vehicle: saline) 110 % of control and 100 % of control; (dose: 8.0 mg/kg/injection, schedule: Q01DX009 (ip), vehicle: saline) 92 % of control and 102 % of control; (dose: 12.5 mg/kg/injection, schedule: Q01DX009 (ip), vehicle: alkali diluted with saline) 100 % of control; (dose: 12.5 mg/kg/injection, schedule: Q01DX009 (ip), vehicle: saline sonified) 97 % of control. For the same compound, the T/C reads like this: (dose: 16.0 mg/kg/injection, schedule: Q01DX009 (ip), vehicle: saline) 94 % of control; (dose: 25.0 mg/kg/injection, schedule: Q01DX009 (ip), vehicle: alkali diluted with saline) 92 % of control; (dose: 25.0 mg/kg/injection, schedule: Q01DX009 (ip), vehicle: saline sonified) 90 % of control; (dose: 32.0 mg/kg/injection, schedule: Q01DX009 (ip), vehicle: saline) 92 % of control; (dose: 64.0 mg/kg/injection, schedule: Q01DX009 (ip), vehicle: saline) 87 % of control.
Turning to `C=C1C(=O)OCC2C(C(=O)O)=CC3C(C)C(C)=CC123` (stereo not given), the T/C (dose: 2.5 mg/kg/injection, schedule: Q01DX009 (ip), vehicle: Klucel (hydroxypropylcellulose) (HPC)) was 106 % of control; the T/C (dose: 3.12 mg/kg/injection, schedule: Q01DX009 (ip), vehicle: other) was 94 % of control; the T/C (dose: 5.0 mg/kg/injection, schedule: Q01DX009 (ip), vehicle: Klucel (hydroxypropylcellulose) (HPC)) is 98 % of control; the T/C (dose: 6.25 mg/kg/injection, schedule: Q01DX009 (ip), vehicle: other) was 101 % of control; the T/C (dose: 10.0 mg/kg/injection, schedule: Q01DX009 (ip), vehicle: Klucel (hydroxypropylcellulose) (HPC)) was 96 % of control; the T/C (dose: 12.5 mg/kg/injection, schedule: Q01DX009 (ip), vehicle: other) is 101 % of control. Besides, the T/C was 98 % of control (dose: 20.0 mg/kg/injection, schedule: Q01DX009 (ip), vehicle: Klucel (hydroxypropylcellulose) (HPC)); 111 % of control (dose: 25.0 mg/kg/injection, schedule: Q01DX009 (ip), vehicle: other); 105 % of control (dose: 40.0 mg/kg/injection, schedule: Q01DX009 (ip), vehicle: Klucel (hydroxypropylcellulose) (HPC)).
Take `CCCCN(CC)C(=S)S[Te](SC(=S)N(CC)CCCC)(SC(=S)N(CC)CCCC)SC(=S)N(CC)CCCC`: the T/C is 110 % of control under setting [7] and 100 % of control (dose: 400.0 mg/kg/injection, schedule: Q01DX009 (ip), vehicle: Klucel (hydroxypropylcellulose) (HPC)).
With `CCCCn1cnc2c(=S)nc[nH]c21`, the T/C reads like this: (dose: 6.25 mg/kg/injection, schedule: Q01DX009 (ip), vehicle: saline with Tween-80) 93 % of control; under setting [1], 89 % of control; under setting [2], 95 % of control; under setting [3], 97 % of control.
Take `NC(=O)C(Br)CBr` (stereo not given): the T/C reads like this: (dose: 25.0 mg/kg/injection, schedule: Q01DX009 (ip), vehicle: Klucel (hydroxypropylcellulose) (HPC)) 92 % of control; under setting [2], 111 % of control; (dose: 50.0 mg/kg/injection, schedule: Q01DX009 (ip), vehicle: Klucel (hydroxypropylcellulose) (HPC)) 105 % of control; under setting [3], 108 % of control; under setting [7], 107 % of control; under setting [4], 106 % of control.
In the case of `COc1cccc2c1C(=O)c1c(O)c3c(c(O)c1C2=O)C[C@@](O)(C(C)=O)C[C@@H]3OC1CC(N2CCOCC2C#N)C(O)C(C)O1` (stereo not given in full), the T/C is, setting by setting: (dose: 9.38 micrograms/kg/injection, schedule: Q01DX001 (ip), vehicle: distilled water + Tween-80) 117 % of control; (dose: 18.75 micrograms/kg/injection, schedule: Q01DX001 (ip), vehicle: water) 107 % of control; (dose: 75.0 micrograms/kg/injection, schedule: Q01DX001 (ip), vehicle: water) 112 % of control.
With `Cc1ccccc1OCC(O)CO` (stereo not given), the T/C under setting [3] was 92 % of control, the T/C under setting [4] is 110 % of control, the T/C under setting [5] is 110 % of control and the T/C under setting [6] is 105 % of control.
On to `NCCCOc1ccc([N+](=O)[O-])cc1Cl`, for which the T/C is 104 % of control (dose: 25.0 mg/kg/injection, schedule: Q01DX009 (ip), vehicle: saline); 104 % of control (dose: 50.0 mg/kg/injection, schedule: Q01DX009 (ip), vehicle: saline); 102 % of control (dose: 100.0 mg/kg/injection, schedule: Q01DX009 (ip), vehicle: saline).
With `CCc1ccc(NC(=O)Nc2ccc(Cl)cc2)cc1`, the T/C was 89 % of control (dose: 100.0 mg/kg/injection, schedule: Q01DX009 (ip), vehicle: gum acacia); 98 % of control (dose: 200.0 mg/kg/injection, schedule: Q01DX009 (ip), vehicle: gum acacia); 93 % of control (dose: 400.0 mg/kg/injection, schedule: Q01DX009 (ip), vehicle: gum acacia).
